What was measured:
SHR-SP cardiac tissue = assay: cardiac gene expression in HSFD SHR-SP after chronic treatment; type: in vivo, rat
Procedure: On week 8, isoflurane anesthetized rats were euthanized via exsanguination. The thoracic aorta was excised for assessment of endothelial function as described below. Hearts were snap-frozen in liquid nitrogen and stored at −80°C for later analysis of gene expression changes associated with cardiac hypertrophy and fibrosis (see below for procedure details).
Cardiac gene expression was analyzed following chronic (7 week) BAY 60-4552 or GSK2181236A treatment in HSFD SHR-SP. Hearts were homogenized in Trizol and RNA was extracted using the RNeasy Plus Mini kit protocol (Qiagen, Valencia, CA, USA) with a 40 μL elution volume. RNA was quantified using a Nanodrop Spectrophotometer ND-1000 (Thermo Fisher Scientific, Wilmington, DE, USA) and converted to cDNA using the High Capacity cDNA Reverse Transcription Kit (Applied Biosystems, Carlsbad, CA, USA). Taqman assays were performed using a 384-well plate format with individual primer-probes and Taqman Universal PCR Master Mix (Applied Biosystems) and run on the 7900 HT Fast Real-Time PCR System (Applied Biosystems). SDS 2.3 software (Applied Biosystems) was used to obtain raw Ct values with manual threshold set at 0.10. Array Studio software (version 3.6.2; OmicSoft Corporation, Cary, NC, USA) was used to normalize gene expression data, by analysis of covariance, to the housekeeper genes β-2-microglobulin (B2m) and peptidyl-prolyl cis-trans isomerase A (Ppia). No outliers were detected by means of principal component analysis.
The following genes were analyzed: α-skeletal actin (Acta1), type 1 collagen-alpha 1 (Col1a1), type 3 collagen-alpha 1 (Col3a1), connective tissue growth factor (CTGF; Ctgf), matrix metalloproteinase 2 (MMP2; Mmp2), matrix metalloproteinase 9 (MMP9; Mmp9), α-myosin heavy chain (α-MHC; Myh6), β-myosin heavy chain (β-MHC; Myh7); atrial natriuretic factor (ANF; Nppa), brain-type natriuretic peptide (BNP; Nppb), cGMP-specific phosphodiesterase 5A (PDE5A; Pde5a), type 2 cGMP-dependent protein kinase (PKG2; Prkg2), and transforming growth factor beta 1 (TGF-β1; Tgfb1).

sGC = target: T1, sGC (Rattus norvegicus, UniProt P20595); assay: P-VASP formation in rat aortic smooth muscle cells; type: cell-based
T1 construct: in rat aortic smooth muscle cells; endogenous in cells; host or cells: primary rat aortic smooth muscle cells
T1 sequence (P20595 1-619): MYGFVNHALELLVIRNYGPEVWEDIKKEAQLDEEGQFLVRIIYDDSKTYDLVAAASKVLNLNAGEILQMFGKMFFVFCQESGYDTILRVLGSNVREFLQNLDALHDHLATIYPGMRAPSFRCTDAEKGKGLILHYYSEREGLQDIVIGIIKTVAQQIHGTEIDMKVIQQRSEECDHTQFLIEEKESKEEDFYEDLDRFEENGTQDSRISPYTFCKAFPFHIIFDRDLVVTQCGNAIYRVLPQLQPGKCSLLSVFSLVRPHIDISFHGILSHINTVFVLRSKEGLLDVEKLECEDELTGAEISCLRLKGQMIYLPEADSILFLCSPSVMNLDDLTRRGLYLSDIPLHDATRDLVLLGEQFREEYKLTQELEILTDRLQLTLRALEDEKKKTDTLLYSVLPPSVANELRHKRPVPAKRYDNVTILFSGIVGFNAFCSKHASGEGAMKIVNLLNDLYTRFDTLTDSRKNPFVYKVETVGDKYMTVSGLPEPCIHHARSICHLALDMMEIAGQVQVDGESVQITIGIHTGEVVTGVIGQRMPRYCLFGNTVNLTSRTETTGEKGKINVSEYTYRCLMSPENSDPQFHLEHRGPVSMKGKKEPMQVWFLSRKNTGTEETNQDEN
T1 sequence (P19686 1-690 partner): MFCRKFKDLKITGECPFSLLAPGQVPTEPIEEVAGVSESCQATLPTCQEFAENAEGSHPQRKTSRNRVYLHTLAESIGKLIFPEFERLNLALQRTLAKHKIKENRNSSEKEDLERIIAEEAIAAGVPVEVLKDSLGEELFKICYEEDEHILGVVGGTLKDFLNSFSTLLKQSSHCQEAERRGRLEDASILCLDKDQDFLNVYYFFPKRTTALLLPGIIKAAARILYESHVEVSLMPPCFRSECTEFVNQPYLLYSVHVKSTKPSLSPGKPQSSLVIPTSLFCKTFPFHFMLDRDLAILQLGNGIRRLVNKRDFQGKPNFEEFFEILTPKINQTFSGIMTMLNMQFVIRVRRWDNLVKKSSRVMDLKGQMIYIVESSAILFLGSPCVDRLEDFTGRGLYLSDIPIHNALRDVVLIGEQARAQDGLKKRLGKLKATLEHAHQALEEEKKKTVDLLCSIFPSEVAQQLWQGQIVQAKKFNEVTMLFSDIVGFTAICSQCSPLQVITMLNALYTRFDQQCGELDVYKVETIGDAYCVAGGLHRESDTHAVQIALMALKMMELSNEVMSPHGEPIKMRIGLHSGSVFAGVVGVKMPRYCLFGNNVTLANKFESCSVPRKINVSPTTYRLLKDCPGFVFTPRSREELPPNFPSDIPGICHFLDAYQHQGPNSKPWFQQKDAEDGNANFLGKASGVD
Procedure: The potency, efficacy, and mechanism of action of the sGC modulators GSK2181236A and BAY 60-4552 were assessed by measuring phosphorylation of the protein kinase G (PKG) substrate […] (VASP) in rat aortic smooth muscle cells. […] Dimethylsulfoxide (DMSO) vehicle or varying concentrations of GSK2181236A (2 pM to 1 μM) or BAY 60-4552 (15 nM to 100 μM) were then added. Following a 30 min incubation at 37°C, media was aspirated and the cells were rinsed with phosphate-buffered saline (PBS) and fixed with 4% formaldehyde in PBS by incubating at room temperature for 20 min. Cells were then washed with PBS and permeabilized for 10 min using 0.1% triton X-100 in PBS. Following PBS rinsing, the cells were blocked for 90 min at room temperature with Odyssey Blocking Buffer (LI-COR, Cambridge, UK). The buffer was aspirated and the cells were treated overnight at 4°C with primary antibody [(pSer^239) VASP, rabbit polyclonal Ab, Cell Signaling Technology, Danvers, MA, USA] diluted 1:500 in Odyssey Blocking Buffer. Following three washes with 0.05% Tween 20, the cells were treated for 1 h at room temperature with secondary antibody (IRDye® 800CW Donkey Anti-Rabbit IgG, LI-COR) diluted 1:2500 in Odyssey Blocking Buffer with 0.05% Tween 20. Following two washes with PBS, infrared fluorescence was measured using an Odyssey Infrared Imaging System (LI-COR).

SMILES | attenuation of HSFD-induced increase of ANF expression (SHR-SP cardiac tissue; 1.0 mg/kg/day, 7 weeks) | attenuation of HSFD-induced increase of α-skeletal actin expression (SHR-SP cardiac tissue; 1.0 mg/kg/day, 7 weeks) | EC50 (sGC; Control (no ODQ)) | Emax, P-VASP formation (sGC; Control (no ODQ)) | leftward-shift of P-VASP concentration-response curve by ODQ (sGC; ODQ 10 μM vs control) | Emax (sGC; ODQ 10 μM vs control, read-out: augmentation of P-VASP maximal response by ODQ) | EC50 (sGC; ODQ (10 μM) pre-treatment) | Emax, P-VASP formation (sGC; ODQ (10 μM) pre-treatment) | attenuation of HSFD-induced increase of α-skeletal actin expression (SHR-SP cardiac tissue; 0.3 mg/kg/day, 7 weeks) | attenuation of HSFD-induced increase of α-skeletal actin expression (SHR-SP cardiac tissue; 3.0 mg/kg/day, 7 weeks) | attenuation of HSFD-induced increase of ANF expression (SHR-SP cardiac tissue; 0.3 and 3.0 mg/kg/day, P > 0.05 vs. HSFD) | rightward-shift of P-VASP concentration-response curve by ODQ (sGC; ODQ 10 μM vs control) | suppression of P-VASP maximal response by ODQ (trend) (sGC; ODQ 10 μM vs control)
Cc1cc(-c2ccc(OC(F)(F)F)cc2)ccc1COc1ccccc1-c1cccc(-n2ncc(C(=O)O)c2C(F)(F)F)n1 [GSK2181236A, 1-(6-{2-[({3-methyl-4′-[(trifluoromethyl)oxy]-4-biphenylyl}methyl)oxy]phenyl}-2-pyridinyl)-5-(trifluoromethyl)-1H-pyrazole-4-carboxylic acid] | 1.4 fold | 1.7 fold | 12.7 ± 4.7 nM | 379 ± 26 % DMSO | 4.7 fold | 32% | 2.7 ± 0.6 nM | 502 ± 26 % DMSO | – | – | – | – | –
COC(=O)Nc1c(N)nc(-c2nn(Cc3ccccc3F)c3ncccc23)nc1N [BAY 60-4552] | – | – | 353 ± 89 nM | 388 ± 39 % DMSO | – | – | 3260 nM | 362 ± 24 % DMSO | 1.3 fold | 1.4 fold | non-significant trend | 9.8 fold | 7%

From publication PMC3389674, “Comparison of Soluble Guanylate Cyclase Stimulators and Activators in Models of Cardiovascular Disease Associated with Oxidative Stress” (Frontiers in Pharmacology, 2012)
